≈ marks a conversion by molar mass, not a printed value. Bounds are passed on as bounds.

The conditions of the data set: buffer; pH 7.4; 200.0 µM.
The compound `CCN(CC)Cc1c(O)ccc2occ(C(=O)c3ccccc3)c12` had a kinetic solubility of 37.7 µg/mL (≈ 117 µM).
In the case of `Cc1ccc(S(=O)(=O)Nc2ccc(O)c3cccnc23)cc1`, the kinetic solubility was determined as 19 µg/mL (≈ 60.4 µM).
In the case of `CC(C)(C)NC(=O)CN(Cc1ccccc1)S(=O)(=O)c1ccccc1` it was 38.7 µg/mL (≈ 107 µM); in that of `COc1cccc(N2CCN(C(=O)c3cc4ccc(OC)cc4[nH]3)CC2)c1`, 1.6 µg/mL (≈ 4.38 µM); in that of `COc1ccc(OCc2csc(N)n2)cc1`, above 35.4 µg/mL.
With `O=S(=O)(/N=C(\[O-])C[n+]1ccccc1)c1ccc(Cl)cc1` the figure was above 46.6 µg/mL; with `CCOC(=O)COn1c(=O)c(-c2ccc(OC)cc2)[n+]([O-])c2ccccc21`, 42 µg/mL (≈ 113 µM).
With `CCCCn1c(N)c(N(CCC(C)C)C(=O)COC(=O)/C=C/c2ccc(F)cc2)c(=O)[nH]c1=O` the figure was 8.5 µg/mL (≈ 17.9 µM).
`CC(=O)N1CCC[C@H]1C(=O)O`: the solubility (kinetic) was above 23.6 µg/mL.
In the case of `CC(=O)NCCc1ccc(C(=O)COC(=O)c2cc(C)oc2C)cc1` it was above 51.5 µg/mL; in that of `CN(C)c1cc[n+](CC(=O)Nc2cccc([N+](=O)[O-])c2)cc1.[Cl-]`, above 50.5 µg/mL.
In the case of `Cc1ccc(F)cc1NC(=O)N1CCCN(C(=O)OC(C)(C)C)CC1` it was 46.9 µg/mL (≈ 133 µM); in that of `COc1cc(C)ccc1OCC(=O)OCC(=O)NCC1CCCCC1`, above 52.4 µg/mL; in that of `O=C(O)Cc1csc(-c2ccc(F)cc2)n1`, 32.2 µg/mL (≈ 136 µM).
In the case of `CC1CN(C(=O)COC(=O)c2ccc(Cl)nc2)CC(C)O1` (stereo not given) it was 42.3 µg/mL (≈ 135 µM); in that of `CCCCCCCCCCCCCCCC(=O)OC(CC(=O)O)C[N+](C)(C)C.[Cl-]` (stereo not given), 4.5 µg/mL; in that of `COc1cc(C(=O)Nc2ccc3c(c2)ncn3C)cc(OC)c1OC`, above 51.2 µg/mL.
`CCCCn1c(NC(=O)c2ccco2)c(S(=O)(=O)c2ccc(C)cc2)c2nc3ccccc3nc21` registered a kinetic solubility of 20.2 µg/mL (≈ 41.3 µM).
Turning to `O=[N+]([O-])c1ccc(CN2CCN(c3ncccn3)CC2)cc1`, the solubility (kinetic) worked out at 10.1 µg/mL (≈ 33.7 µM).
With `COc1c(-c2ccc([N+](=O)[O-])cc2[N+](=O)[O-])c(=O)n(C)c(=O)n1C` the figure was above 50.4 µg/mL.
`Nc1cc2c(cc1Cl)N(Cc1ccccc1)C(=O)CO2` yielded a kinetic solubility above 43.3 µg/mL.
`Cc1ccc2cccc(OCc3ccccc3)c2n1` displayed a kinetic solubility of 20.8 µg/mL (≈ 83.4 µM).
With `N#CC1CCCc2c1[nH]c1ccc([N+](=O)[O-])cc21` (stereo not given) the figure was 20.8 µg/mL (≈ 86.2 µM).
With `COCc1c(C(=O)N2CCN(c3ccccc3C)CC2)oc2ccccc12` the figure was 9.2 µg/mL (≈ 25.2 µM); with `Cc1cc(C)c(C#N)c(SCC(=O)Nc2nonc2N)n1`, 15.3 µg/mL (≈ 50.3 µM).
With `COCc1cc(=O)[nH]c(SCCS(=O)(=O)c2ccc(C)cc2)n1` the figure was above 53.2 µg/mL.
For `Cc1cc(F)ccc1NC(=O)Cn1c(C)csc1=O`, the kinetic solubility was above 42 µg/mL.
`O=C(CN1CCCCC1)c1c[nH]c2ccccc12` displayed a kinetic solubility above 36.3 µg/mL.
With `CSc1ncccc1C(=O)OCC(=O)NC(C)(C)C` the figure was above 42.4 µg/mL; with `COc1ccccc1/C=C(\C)C(=O)c1c(C)cc(C)[nH]c1=O`, above 44.6 µg/mL.
With `Cc1cnc(C(=O)OCC(=O)Nc2ccc(C)c(S(=O)(=O)N3CCOCC3)c2)cn1` the figure was above 65.2 µg/mL; with `COc1ccc(C(=O)NC(C(=O)NCC2CCCO2)C(C)C)cc1` (stereo not given), above 50.2 µg/mL; with `CC(C)=NOc1nc(N(C)C)nc(N2CCOCC2)n1`, 41.9 µg/mL (≈ 149 µM).
In the case of `COc1ccc(CN=C(N)N=C(N)N)cc1Cl.Cl` it was above 43.8 µg/mL; in that of `Cc1ccc2c(=O)c(CN3CCCCCC3)c(C)[nH]c2c1C`, 40.6 µg/mL (≈ 136 µM).
The compound `Cc1ccc(S(=O)(=O)N2C(=O)CCC2C(N)=O)cc1` (stereo not given) yielded a kinetic solubility above 42.3 µg/mL.
`COc1cc(NC(=O)c2ccc(S(=O)(=O)N(C)c3ccccc3)cc2)cc(OC)c1` registered a solubility (kinetic) of 5 µg/mL (≈ 11.7 µM).
`COc1ccccc1C(=O)NCCC(=O)NCc1cccs1` registered a solubility (kinetic) above 47.8 µg/mL.
The compound `COc1ccc(C(C)=O)cc1Cn1nc(C)c([N+](=O)[O-])c1C` registered a solubility (kinetic) above 45.5 µg/mL.
With `CC(C)CC(=O)N1CCN(Cc2ccc3ccccc3c2)CC1` the figure was 26.4 µg/mL (≈ 85 µM); with `CN(C)CCN(C(=O)c1ccc2ccccc2c1)c1nc2c(F)cc(F)cc2s1.Cl`, 32.8 µg/mL.
With `Cn1c(=O)n(CC(N)=O)c(=O)c2c1nc(Br)n2Cc1ccccc1` the figure was above 58.8 µg/mL; with `Fc1cccc(Cl)c1CNCc1cccnc1`, above 37.6 µg/mL.
In the case of `Cc1ccc(C(=O)Nc2ccc(F)c(S(=O)(=O)N3CCOCC3)c2)s1` it was 5.3 µg/mL (≈ 13.8 µM); in that of `COc1cc(CC(=O)N2CCN(S(=O)(=O)c3ccc(C)cc3)CC2)cc(OC)c1OC`, above 67.3 µg/mL; in that of `COc1ccccc1NC(=S)N(Cc1cccs1)C1CCCC1`, 6 µg/mL (≈ 17.3 µM).
For the compound `O=C(Cc1ccc(F)cc1)Nc1ccc(Cl)cn1`, the solubility (kinetic) was 8.1 µg/mL (≈ 30.6 µM).
With `OC(c1ccccc1)c1nc2ccccc2[nH]1` (stereo not given) the figure was above 33.6 µg/mL.
In the case of `CC(=O)N/C(=C\c1ccccc1)C(=O)OCc1ccc(C)cc1` it was above 46.4 µg/mL.
In the case of `Cc1sc2c(c1C)C(=O)/C(=C\Nc1ccncc1)S(=O)(=O)N2C` it was 1.9 µg/mL (≈ 5.44 µM); in that of `CCOC(=O)c1ccc(NC(C)=O)c([N+](=O)[O-])c1`, above 37.8 µg/mL.
For the compound `CC1CN(c2ccc([N+](=O)[O-])nc2)CC(C)O1` (stereo not given), the solubility (kinetic) was above 35.6 µg/mL.
With `CN=CC1=C(O)C(C(=O)OC)C(C)(C)CC1=O` (stereo not given) the figure was above 35.9 µg/mL.
In the case of `O=C(CCNC(=O)c1ccccc1)Nc1nc2ccccc2s1` it was 4.9 µg/mL (≈ 15.1 µM); in that of `CN(C)S(=O)(=O)c1cccc(NC(=O)COc2ccc(S(=O)(=O)N3CCOCC3)cc2Cl)c1`, 5.4 µg/mL (≈ 10.4 µM); in that of `Nc1nc(SCC(=O)NC2CCCC2)[nH]c(=O)c1NC(=O)c1cccs1`, 4.4 µg/mL (≈ 11.2 µM).
In the case of `Cc1ccc2c(CN(C)Cc3ccccc3)cc(=O)oc2c1C` it was 1.7 µg/mL (≈ 5.53 µM); in that of `O=c1[nH]c2ccc(NC(=S)NCc3ccccc3)cc2[nH]1`, 7.6 µg/mL (≈ 25.5 µM).
With `CCc1nn(CC(=O)N2CCC(C)CC2)c(=O)c2cccn12`, the solubility (kinetic) is above 45.4 µg/mL.
With `COc1cc(-c2noc(C)n2)cc(OC)c1OC` the figure was 35.7 µg/mL (≈ 143 µM); with `O=C(Nc1ccc(F)cc1F)c1ccc2ncsc2c1`, 27.4 µg/mL (≈ 94.4 µM).
With `Cc1ccc(S(=O)(=O)CC(=O)N2CC(C)OC(C)C2)cc1` (stereo not given) the figure was above 46.7 µg/mL; with `O=C1c2ccccc2C(Nc2ccccc2)N1Cc1ccc2c(c1)OCO2` (stereo not given), 0.9 µg/mL (≈ 2.51 µM); with `Cc1ccc(NC(=O)COC(=O)c2cccnc2Cl)cc1S(=O)(=O)N1CCOCC1`, 66 µg/mL (≈ 145 µM).
With `Cc1ccc(S(=O)(=O)NCCC(=O)NC2CC2)cc1`, the kinetic solubility is above 42.4 µg/mL.
Turning to `Cc1c(/C=N/NC(=O)c2ccc(Br)o2)cnn1C`, the solubility (kinetic) is above 46.7 µg/mL.
Take `CCn1c(-c2ccc[nH]c2=O)nc2ccccc21`: the kinetic solubility was above 35.9 µg/mL.
With `CN1C(=O)c2ccccc2Sc2ccc(C(=O)O)cc21` the figure was above 42.8 µg/mL.
With `Cc1ccc(C)c(N(CC(=O)N2CCCCCC2)S(C)(=O)=O)c1` the figure was 46.9 µg/mL (≈ 139 µM); with `COc1ccc(CCC2CCNCC2)cc1.Cl`, above 38.4 µg/mL; with `CC(C)(C)NC(=O)C1c2ccccc2Oc2ccccc21`, 1.7 µg/mL (≈ 6.04 µM).
Turning to `CCc1ccc(NC(=O)CCc2ccc(C)o2)cc1`, the kinetic solubility is 5.3 µg/mL (≈ 20.6 µM).
On to `COC(=O)C1CCN(C(=O)COc2ccc(S(=O)(=O)N3CCOCC3)cc2Cl)CC1`, for which the kinetic solubility is above 69.1 µg/mL.
With `Cn1cc(-c2ccccc2C(N)=O)c(=O)c2ccccc21` the figure was above 41.7 µg/mL.
In the case of `COc1ccc(-c2noc(CNC(=O)c3ccoc3C)n2)cc1` it was 37.8 µg/mL (≈ 121 µM); in that of `Cl.N=C1CCCN1c1ccccc1O`, 30.6 µg/mL; in that of `C[n+]1ccccc1/C=N/O.[I-]`, above 39.6 µg/mL.
In the case of `Cc1ccc(C(C)C)c(OCCCCCN2CCOCC2)c1` it was 12.8 µg/mL (≈ 41.9 µM); in that of `Cc1cc(=O)[nH]c(Nc2ccc(N(C)C)cc2)n1`, above 36.6 µg/mL; in that of `COc1ccc(/C(N)=N/OC(=O)c2cccc([N+](=O)[O-])c2C)cc1`, 1.1 µg/mL (≈ 3.34 µM).
As to `CCCOc1ccc(NC(=O)CCC(=O)NC(C)c2ccccc2)cc1` (stereo not given), the kinetic solubility came out at 0.5 µg/mL (≈ 1.41 µM). Compared with the last compound, the solubility kinetic is about 2.2-fold lower.
With `Cc1ccccc1-n1c(C)c(C#N)c(=O)c(-[n+]2ccccc2)c1[S-]` the figure was 45.5 µg/mL (≈ 136 µM); with `Cc1ccc(NC(=O)c2cc3cccc([N+](=O)[O-])c3[nH]2)cc1`, 2.8 µg/mL (≈ 9.48 µM); with `CSc1nsc(SCC(=O)NCc2ccc(C)cc2)n1`, 11.8 µg/mL (≈ 36.3 µM).
`CC(C)NC(=O)CN1C(=O)c2cccc3cccc1c23` had a kinetic solubility of 9.8 µg/mL (≈ 36.5 µM).
On to `O=c1[nH]cnc2ccc([N+](=O)[O-])cc12`, for which the solubility (kinetic) was above 28.7 µg/mL.
With `NC(=O)C(=O)NCCCN1CCOCC1` the figure was above 32.3 µg/mL.
With `Cc1ccc2[nH]c(C(=O)N3CCN(C(c4ccccc4)c4ccccc4)CC3)cc2c1` the figure was 1 µg/mL (≈ 2.44 µM); with `COc1cc(/C=C2\SC(=O)N(CCNC(=O)c3c(C)noc3C)C2=O)cc(OC)c1OC`, 4.8 µg/mL (≈ 10.4 µM).
With `Cc1ccc(-c2ccc(S(=O)(=O)N3CC(C)OC(C)C3)cc2)cc1` (stereo not given) the figure was below 0.7 µg/mL.
`COC(=O)c1ccccc1NC(=O)c1ccc(F)cc1` gave a solubility (kinetic) below 0.6 µg/mL.
With `Cc1cc(C(=O)Nc2ccccc2[N+](=O)[O-])cs1` the figure was 1.6 µg/mL (≈ 6.1 µM); with `COc1cc(CC(=O)OCC(=O)NCc2cccs2)cc(OC)c1OC`, above 56.9 µg/mL.
With `Cc1cc2oc(=O)cc(CN3CCOCC3)c2cc1C(C)C` the figure was 3.4 µg/mL (≈ 11.3 µM); with `COc1cc(OC)cc(C(=O)OCC(=O)Nc2cccc(S(=O)(=O)NC3=NCCCCC3)c2)c1`, 33.3 µg/mL (≈ 68 µM).
With `Cc1ccc(NC(=O)C2CCN(C(=O)c3cccs3)CC2)c(C)c1` the figure was 36.6 µg/mL (≈ 107 µM).
On to `CC(=O)c1c(C)[nH]c(C(=O)COC(=O)CN2C(=O)C3CCCCC3C2=O)c1C` (stereo not given), for which the kinetic solubility was above 58.3 µg/mL.
In the case of `O=C(Nc1ccccc1C(=O)Nc1ccccc1)c1ccccc1F`, the kinetic solubility is below 0.4 µg/mL.
In the case of `COc1cccc(OC)c1C(=O)NC(=O)Oc1c(F)cccc1F` it was 43.8 µg/mL (≈ 130 µM); in that of `CC(=O)Nc1ccc2nc(NC(=O)c3ccc([N+](=O)[O-])o3)sc2c1`, 4 µg/mL (≈ 11.5 µM).

These data come from PubChem BioAssay AID1996.
